We go through five compounds from patent publication US20240238265A1 (priority 2020, published 2024).

For data set [1] the following is noted: 1 h, pH 7.4.
The nature of a further data set: in vitro. The following applies: African green monkey.
The conditions of data set [2]: 1 h, pH 7.4. The source holds these as a separate data set.
Data set [3] deals with pseudotyped VSV expressing BDBV glycoprotein. The experiment in a line: microbe, parasite or virus in culture. It counts as cell-based, Bundibugyo virus (BDBV). The conditions noted are these: Vesicular stomatitis virus, Vero, 24 h, read-out: EC50 (uM) Pseudotype Assays BDBV.
For data set [4], the system named is pseudotyped VSV expressing MARV glycoprotein. Nature of the data set: microbe, parasite or virus in culture. The following applies: Vesicular stomatitis virus, Vero, 24 h, read-out: EC50 (uM) Pseudotype Assays MARV. In kind it is cell-based, Marburg virus (MARV).
Data set [5] has as its system pseudotyped VSV expressing EBOV glycoprotein. Nature of the data set: microbe, parasite or virus in culture. The conditions noted are these: Zaire ebolavirus, Vero, 24 h, read-out: EC50 (uM) Pseudotype Assays EBOV. It counts as cell-based, Ebola virus (EBOV).
For data set [6] the following is noted: 1 h, pH 7.4. This is another data set of the same source.
Data set [7] relates to pseudotyped VSV expressing SUDV glycoprotein. Nature of the data set: microbe, parasite or virus in culture. In kind it is cell-based, Sudan virus (SUDV). The following applies: Vesicular stomatitis virus, Vero, 24 h, read-out: EC50 (uM) Pseudotype Assays SUDV.
For data set [8] the following is noted: 1 h, pH 7.4. This is another data set of the same source.
A further data set has as its system WT EBOV-Mayinga. Nature of the data set: microbe, parasite or virus in culture. It counts as cell-based, Ebola virus (EBOV). The following applies: for EC50 / EC90: Zaire ebolavirus; for EC50: read-out: WT EBOV-Mayinga EC50 (uM); for EC90: read-out: WT EBOV-Mayinga EC90 (uM).
The conditions of data set [9]: 1 h, pH 7.4. This is another data set of the same source.
The conditions of data set [10]: 1 h, pH 7.4. The source holds these as a separate data set.
The subject of another data set is SUDV-Gulu. The experiment in a line: microbe, parasite or virus in culture. In kind it is cell-based, Sudan virus (SUDV).
The test system of a further data set is EBOV-Zaire. The experiment in a line: microbe, parasite or virus in culture. In kind it is cell-based, Ebola virus (EBOV).
For a further data set, the system named is EBOV (strain kikwit). Nature of the data set: microbe, parasite or virus in culture. In kind it is cell-based, Ebola virus (EBOV).
In a further data set the test system is SUDV (strain Gulu). The experiment in a line: microbe, parasite or virus in culture. In kind it is cell-based, Sudan virus (SUDV).

Structures can show the parent of a compound that is named as a salt.

Take `CCCC1C2CC3(C(=O)N[C@H]4CC[C@H](N)CC4)CC1CC(c1ccccc1)(C2)C3` (stereo partly drawn) [Example F3]: the “Percent parent compound remaining at 60 minutes in liver microsomes, Mouse” value (“Percent parent compound remaining … Mouse” for short) in [1] is listed as 26%. In “in vitro”, this compound showed a CC50 of 4650 nM. Further, the “Percent parent compound remaining at 60 minutes in liver microsomes, Human” value (from here on “Percent parent compound remaining … Human”) in data set [2] is recorded as 91%. The concentration giving a half-maximal response (EC50) in [3] is 0.08 µM; in [4], 1.6 µM; in data set [5], 0.005 µM; in data set [7] it was 0.39 µM; in the data set with WT EBOV-Mayinga it was roughly 0.008 µM. In data set [6], the “Percent parent compound remaining at 60 minutes in liver microsomes, Guinea Pig” value (“Percent parent compound remaining … Guinea Pig” below) is 48%. In addition, the “Percent parent compound remaining at 60 minutes in liver microsomes, Monkey” value (“Percent parent compound remaining … Monkey” below) in [8] turned out to be 100%. The EC90 in the data set on WT EBOV-Mayinga was roughly 0.01 µM.
Turning to `CC1C2CC3(C(=O)N[C@H]4CC[C@H](N)CC4)CC1CC(c1ccccc1)(C2)C3` (stereo partly drawn) [Example F1, trans-N-(4-aminocyclohexyl)-6-methyl-3-phenyladamantane-1-carboxamide], in data set [1], the “Percent parent compound remaining … Mouse” value is reported as 83%. The same compound registered a CC50 in “in vitro” of 13300 nM. Also, the “Percent parent compound remaining at 60 minutes in liver microsomes, Dog” value in data set [9] came to 82%. For the same compound, in data set [10], the “Percent parent compound remaining at 60 minutes in liver microsomes, Rat” value was 99%. In addition, the “Percent parent compound remaining … Human” value in data set [2] was 91%. In addition, the EC50 is 0.065 µM in data set [3], greater than 3 µM in data set [4], 0.027 µM in data set [5] and 0.21 µM in data set [7]. In addition, in data set [6], the “Percent parent compound remaining … Guinea Pig” value worked out at 79%. In addition, the “Percent parent compound remaining … Monkey” value in data set [8] is reported as 92%.
As to `N[C@H]1CC[C@H](NC(=O)C23CC4CC(CCl)(C2)CC(c2ccccc2)(C4)C3)CC1` (mixture of isomers) [Example E1, rac-trans-N-(4-aminocyclohexyl)-3-(chloromethyl)-5-phenyladamantane-1-carboxamide hydrochloride], the “Percent parent compound remaining … Mouse” value in [1] is listed as 69%. Moreover, the CC50 in “in vitro” was determined as 13800 nM. Also, in [2], the “Percent parent compound remaining … Human” value came out at 89%. Further, the EC50 in data set [3] is 0.12 µM; in [4], greater than 1 µM; in data set [5], 0.034 µM; in [7], 0.56 µM. For the same compound, the “Percent parent compound remaining … Guinea Pig” value in data set [6] is recorded as 100%. The “Percent parent compound remaining … Monkey” value in data set [8] was found to be 72%.
For the compound `CCC=C1C2CC3(C(=S)N[C@H]4CC[C@H](N)CC4)CC1CC(c1ccccc1)(C2)C3` (relative stereo) [Example D2, trans-N-(4-aminocyclohexyl)-3-phenyl-6-propylideneadamantane-1-carbothioamide], the “SUDV-Gulu SI50 (CC50/EC50)” value in the data set on SUDV-Gulu worked out at 78. Moreover, the concentration giving a half-maximal response (EC50) in the data set on SUDV-Gulu (Sudan ebolavirus, Vero, read-out: SUDV-Gulu EC50 (uM)) turned out to be 0.11 µM; in data set [5] it was 0.051 µM; in the data set on EBOV-Zaire (Zaire ebolavirus, Vero, read-out: EBOV-Zaire EC50 (uM)) it was 2.6 µM; in [7] it was 0.072 µM. Also, the CC50 in the data set “in vitro” was 1780 nM. The “Percent parent compound remaining … Human” value in data set [2] is 100%. In the data set on EBOV-Zaire, the “EBOV-Zaire SI50 (CC50/EC50)” value turned out to be 3.3. Also, the “Percent parent compound remaining … Guinea Pig” value in data set [6] was determined as 100%. Moreover, the “Percent parent compound remaining … Monkey” value in data set [8] was found to be 100%.
On to `CCC1C2CC3(C(=O)N[C@H]4CC[C@H](N)CC4)CC1CC(c1ccccc1)(C2)C3` (stereo partly drawn) [Example F2], for which the “Percent parent compound remaining … Mouse” value in [1] worked out at 48%. The compound also gave a CC50 in the data set “in vitro” of 12600 nM. In [9], the “Percent parent compound remaining at 60 minutes in liver microsomes, Dog” value is listed as 80%. In addition, in data set [10], the “Percent parent compound remaining at 60 minutes in liver microsomes, Rat” value was 86.5%. For the same compound, the “EBOV-Kikwit SI50 (CC50/EC50)” value in the data set with EBOV (strain kikwit) was determined as 90.33. Moreover, the concentration giving a half-maximal response (EC50) came out at 0.11 µM with EBOV (strain kikwit) (Zaire ebolavirus, HeLa, read-out: EBOV-Kikwit EC50 (uM)); 0.03 µM in [3]; 3.1 µM in data set [4]; 0.039 µM with SUDV (strain Gulu) (Sudan ebolavirus, HeLa, read-out: SUDV-Gulu EC50 (uM)); 0.011 µM in data set [5]; 0.27 µM in data set [7]. Further, the 50% effective concentration (EC50) with WT EBOV-Mayinga came out at 0.014 µM. Moreover, the “Percent parent compound remaining … Human” value in data set [2] came to 85%. The “SUDV-Gulu SI50 (CC50/EC50)” value in the data set with SUDV (strain Gulu) stood at 291.26. In addition, the “Percent parent compound remaining … Guinea Pig” value in [6] is 68%. The “Percent parent compound remaining … Monkey” value in data set [8] is 100%. Besides, the “WT EBOV-Mayinga SI50 (CC50/EC50)” value with WT EBOV-Mayinga is 706.84. In addition, the “WT EBOV-Mayinga SI90 (CC50/EC90)” value with WT EBOV-Mayinga stood at 209.99. Further, the EC90 with WT EBOV-Mayinga amounted to 0.048 µM.
